What follows are molecules tested against Mcl-1 protein (UniProtKB Q07820) (Homo sapiens (Human), UniProt Q07820) (assay: Inhibition of Mcl-1 by the fluorescence polarisation assay (Example A, Method A)). Conditions: fluorescence polarization assay.
Sequence of Mcl-1 protein (Q07820 whole entry): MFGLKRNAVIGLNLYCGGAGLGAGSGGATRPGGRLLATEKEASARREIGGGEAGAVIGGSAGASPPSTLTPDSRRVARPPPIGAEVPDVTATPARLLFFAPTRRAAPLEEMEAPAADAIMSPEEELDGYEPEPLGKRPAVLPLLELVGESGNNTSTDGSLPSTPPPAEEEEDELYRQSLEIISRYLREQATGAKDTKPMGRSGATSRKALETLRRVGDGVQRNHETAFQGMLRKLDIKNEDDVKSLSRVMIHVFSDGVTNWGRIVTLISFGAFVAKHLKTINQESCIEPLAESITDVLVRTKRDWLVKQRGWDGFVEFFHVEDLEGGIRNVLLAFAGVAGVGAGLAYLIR
Assay type: binding
Outline: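 Protein (5 nM) and fluorescein-tagged peptide tracer (1 nM) incubated with 11-point compound series for 2 h at room temperature in HEPES/NaCl/Tween 20 buffer, pH 7.4, 5% DMSO. Displacement read as decrease in polarisation; IC50 fitted by 4-parameter logistic, converted to Ki (cKi or eKi).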
`Cc1ccc(C2Cc3ccccc3C23CCC(Nc2cccc(Br)c2)(C(=O)O)CC3)s1` (single isomer, unassigned) [Example 262, 4-(3-bromoanilino)-2′-(5-methylthiophen-2-yl)-2′,3′-dihydrospiro[cyclohexane-1,1′-indene]-4-carboxylic acid] showed a Ki of 0.236 µM. Work on `COc1ccc2c(c1)[C@]1(CC2)CC[C@@](Nc2cccc(Br)c2)(C(=O)O)CC1` [Example 62, (1s,4r)-4-(3-bromoanilino)-6′-methoxy-2′,3′-dihydrospiro[cyclohexane-1,1′-indene]-4-carboxylic acid] yielded a Ki of 43.5 µM. With `COc1ccc2c(c1)[C@]1(CC[C@](Nc3cccc(Br)c3)(C(=O)O)CC1)C(C)(C)C2` [Example 128, (1s,4s)-4-(3-bromoanilino)-6′-methoxy-2′,2′-dimethyl-2′,3′-dihydrospiro[cyclohexane-1,1′-indene]-4-carboxylic acid] the Ki was 46.2 µM. Work on `Cc1ccccc1C1Cc2ccccc2C12CCC(Nc1cccc(Br)c1)(C(=O)O)CC2` (centres unmarked) [Example 214, 4-(3-bromoanilino)-2′-(2-methylphenyl)-2′,3′-dihydrospiro[cyclohexane-1,1′-indene]-4-carboxylic acid] yielded a Ki of 7.9 µM. With `O=C(O)[C@]1(Nc2cccc(Cl)c2)CC[C@]2(CC1)C(/C=C/CC1CCCC1)=Cc1ccccc12` [Example 152, (1r,4r)-4-(3-chloroanilino)-2′-[(1E)-3-cyclopentylprop-1-en-1-yl]spiro[cyclohexane-1,1′-indene]-4-carboxylic acid] the Ki was 0.609 µM. With `O=C(O)[C@]1(Nc2cccc(Cl)c2)CC[C@@]2(CC1)c1ccccc1CC2c1ccc2ccoc2c1` (single isomer, unassigned) [Example 290, (1r,4r)-2′-(1-benzofuran-6-yl)-4-(3-chloroanilino)-2′,3′-dihydrospiro[cyclohexane-1,1′-indene]-4-carboxylic acid] the Ki was 14.4 µM. With `O=C(O)[C@]1(Nc2cccc(Br)c2)CC[C@]2(CC1)C(Br)=Cc1ccccc12` [Example 78, (1s,4s)-2′-bromo-4-(3-bromoanilino)spiro[cyclohexane-1,1′-indene]-4-carboxylic acid] the Ki was 0.0876 µM. `O=C(O)[C@]1(Nc2cccc(Cl)c2)CC[C@]2(CC1)C(C1=CCCC1)=Cc1ccccc12` [Example 277, (1r,4r)-4-(3-chloroanilino)-2′-(cyclopent-1-en-1-yl)spiro[cyclohexane-1,1′-indene]-4-carboxylic acid] gave a Ki of 6.09 µM. With `O=C(NCc1ccccc1)C1=Cc2ccccc2[C@]12CC[C@@](Nc1cccc(Cl)c1)(C(=O)O)CC2` [Example 180, (1s,4s)-2′-(benzylcarbamoyl)-4-(3-chloroanilino)spiro[cyclohexane-1,1′-indene]-4-carboxylic acid] the Ki was 12.8 µM. `Cc1cc(C2=Cc3ccccc3[C@]23CC[C@@](Nc2cccc(Cl)c2)(C(=O)O)CC3)cs1` [Example 318, (1s,4s)-4-(3-chloroanilino)-2′-(5-methylthiophen-3-yl)spiro[cyclohexane-1,1′-indene]-4-carboxylic acid] showed a Ki of 1.91 µM. `COc1ccc2c(c1)[C@]1(CC[C@](Nc3cccc(Br)c3)(C(=O)O)CC1)C1(CCCC1)C2` [Example 94, (1s,4s)-4-(3-bromoanilino)-6′-methoxy-3′H-dispiro[cyclohexane-1,1′-indene-2′,1″-cyclopentane]-4-carboxylic acid] showed a Ki of 129 µM. `O=C(O)[C@]1(Nc2cccc(Cl)c2)CC[C@@]2(CC1)c1ccccc1CC2CCOc1ccncc1F` (some centres unmarked) [Example 188, (1r,4r)-4-(3-chloroanilino)-2′-{2-[(3-fluoropyridin-4-yl)oxy]ethyl}-2′,3′-dihydrospiro[cyclohexane-1,1′-indene]-4-carboxylic acid] showed a Ki of 0.214 µM. `O=C(O)[C@]1(Nc2cccc(Cl)c2)CC[C@@]2(CC1)c1ccccc1CC2CCOc1ccnc(F)c1` (some centres unmarked) [Example 187, (1r,4r)-4-(3-chloroanilino)-2′-{2-[(2-fluoropyridin-4-yl)oxy]ethyl}-2′,3′-dihydrospiro[cyclohexane-1,1′-indene]-4-carboxylic acid] showed a Ki of 0.271 µM. Work on `COc1ccc([C@H]2Cc3ccccc3[C@]23CC[C@@](Nc2cccc(Cl)c2)(C(=O)O)CC3)cc1` [Example 241, (1r,2′R,4R)-4-(3-chloroanilino)-2′-(4-methoxyphenyl)-2′,3′-dihydrospiro[cyclohexane-1,1′-indene]-4-carboxylic acid] yielded a Ki of 4.35 µM. With `O=C(O)[C@]1(Nc2cccc(Cl)c2)CC[C@@]2(CC1)c1ccccc1CC2c1cccc(Oc2cccnc2)c1` (single isomer, unassigned) [Example 374, (1r,4r)-4-(3-chloroanilino)-2′-{3-[(pyridin-3-yl)oxy]phenyl}-2′,3′-dihydrospiro[cyclohexane-1,1′-indene]-4-carboxylic acid] the Ki was 0.189 µM. Molecule `CC1=Nc2ccc(Br)cc2[C@]12CC[C@](Nc1cccc(Br)c1)(C(=O)O)CC2` [Example 27, (1r,4r)-5′-bromo-4-(3-bromoanilino)-2′-methylspiro[cyclohexane-1,3′-indole]-4-carboxylic acid] has a Ki of 36.3 µM. In the case of `Cc1cnccc1OCCCN1Cc2ccccc2[C@]12CC[C@@](Nc1cccc(Cl)c1)(C(=O)O)CC2` [Example 37, (1s,4s)-4-(3-chloroanilino)-2′-{3-[(3-methylpyridin-4-yl)oxy]propyl}-2′,3′-dihydrospiro[cyclohexane-1,1′-isoindole]-4-carboxylic acid], the Ki is reported as 0.295 µM. `CC(F)(COc1ccnc2c1CCC2)CC1Cc2ccccc2[C@]12CC[C@@](Nc1cccc(Cl)c1)(C(=O)O)CC2` (some centres unmarked) [Example 607, (1r,4r)-4-(3-chloroanilino)-2′-{3-[(6,7-dihydro-5H-cyclopenta[b]pyridin-4-yl)oxy]-2-fluoro-2-methylpropyl}-2′,3′-dihydrospiro[cyclohexane-1,1′-indene]-4-carboxylic acid] was tested, and the Ki was 0.164 µM. Molecule `COc1cccc([C@@H]2Cc3ccccc3[C@]23CC[C@@](Nc2cccc(Br)c2)(C(=O)O)CC3)c1` [Example 219, (1r,2′S,4S)-4-(3-bromoanilino)-2′-(3-methoxyphenyl)-2′,3′-dihydrospiro[cyclohexane-1,1′-indene]-4-carboxylic acid] has a Ki of 0.381 µM. For `O=C(O)C1(Nc2cccc(Br)c2)CCC2(CC1)c1ccccc1CC2CCc1ccccc1` (racemic) [Example 201, 4-(3-bromoanilino)-2′-(2-phenylethyl)-2′,3′-dihydrospiro[cyclohexane-1,1′-indene]-4-carboxylic acid], the Ki was 1.53 µM. Molecule `CN1c2ccccc2C2(CCC(Nc3cccc(Br)c3)(C(=O)O)CC2)C1CCc1ccccc1` (single isomer, unassigned) [Example 25, 4-(3-bromoanilino)-1′-methyl-2′-(2-phenylethyl)-1′,2′-dihydrospiro[cyclohexane-1,3′-indole]-4-carboxylic acid] has a Ki of 0.887 µM. Molecule `O=C(O)C1(Nc2cccc(Br)c2)CCC2(CC1)c1ccccc1CC2c1ccc(Cl)cc1` (centres unmarked) [Example 222, 4-(3-bromoanilino)-2′-(4-chlorophenyl)-2′,3′-dihydrospiro[cyclohexane-1,1′-indene]-4-carboxylic acid] has a Ki of 2.26 µM. With `O=C(O)[C@]1(Nc2cccc(Cl)c2)CC[C@]2(CC1)C(c1ccc(Oc3ccncc3)cc1)=Cc1ccccc12` [Example 342, (1s,4s)-4-(3-chloroanilino)-2′-{4-[(pyridin-4-yl)oxy]phenyl}spiro[cyclohexane-1,1′-indene]-4-carboxylic acid] the Ki was 0.785 µM. `Cc1ccc(C2Cc3ccccc3C23CCC(Nc2cccc(Br)c2)(C(=O)O)CC3)s1` (single isomer, unassigned) [Example 263, 4-(3-bromoanilino)-2′-(5-methylthiophen-2-yl)-2′,3′-dihydrospiro[cyclohexane-1,1′-indene]-4-carboxylic acid] was tested, and the Ki was 5.02 µM. `COc1cccc([C@H]2Cc3ccccc3[C@]23CC[C@@](Nc2cccc(Br)c2)(C(=O)O)CC3)c1` [Example 220, (1r,2′R,4R)-4-(3-bromoanilino)-2′-(3-methoxyphenyl)-2′,3′-dihydrospiro[cyclohexane-1,1′-indene]-4-carboxylic acid] showed a Ki of 7.23 µM. `O=C(O)[C@]1(Nc2cccc(O)c2)CC[C@]2(CC1)C(Br)=Cc1ccccc12` [Example 84, (1s,4s)-2′-bromo-4-(3-hydroxyanilino)spiro[cyclohexane-1,1′-indene]-4-carboxylic acid] was tested, and the Ki was 7.22 µM. Molecule `COc1ccc(C2=Cc3ccccc3[C@]23CC[C@](Nc2cccc(Cl)c2)(C(=O)O)CC3)cc1Cl` [Example 226, (1r,4r)-4-(3-chloroanilino)-2′-(3-chloro-4-methoxyphenyl)spiro[cyclohexane-1,1′-indene]-4-carboxylic acid] has a Ki of 23.7 µM. `O=C(O)[C@]1(Nc2cccc(Cl)c2)CC[C@]2(CC1)C(CCCc1ccc(Cl)cc1)=Cc1ccccc12` [Example 157, (1r,4r)-4-(3-chloroanilino)-2′-[3-(4-chlorophenyl)propyl]spiro[cyclohexane-1,1′-indene]-4-carboxylic acid] showed a Ki of 0.846 µM. Molecule `CC1N(C=O)c2ccccc2[C@]12CC[C@](Nc1cccc(Br)c1)(C(=O)O)CC2` (some centres unmarked) [Example 26, (1r,4r)-4-(3-bromoanilino)-1′-formyl-2′-methyl-1′,2′-dihydrospiro[cyclohexane-1,3′-indole]-4-carboxylic acid] has a Ki of 42.8 µM.
